From patent US20250179061A1 (SIRONAX LTD., priority 2022, published 2025) come the findings set out here.

This assay concerns HT-29 cells. Description: HT-29 necroptosis cell viability assay (TNF-α/SMAC mimetic/zVAD-FMK, CellTiter-Glo). The assay is classed as cell-based. Conditions: Homo sapiens, HT-29, HT-29 necroptosis cell viability, IC50 class symbols; read-out: Activity. A digest of the protocol: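 Necroptosis was triggered by TNF-α (10 ng/ml), SMAC mimetic (6 μM) and zVAD-FMK (10 μM) in serum-free medium during 20 h compound exposure (10 concentrations, threefold steps) of HT-29 cells. IC50 from duplicate dose-responses uses CellTiter-Glo ATP luminescence as viability read-out.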
In general terms: In ATP-based viability assays light output follows the ATP content of the culture.

Structures are written as SMILES.

With `NC1CN(c2cc(Oc3ccc(-n4ncn(Cc5c(F)cccc5F)c4=O)cc3)ccn2)C1` [Example 322, 2-(4-((2-(3-aminoazetidin-1-yl)pyridin-4-yl)oxy)phenyl)-4-(2,6-difluorobenzyl)-2,4-dihydro-3H-1,2,4-triazol-3-one], the IC50 fell in the range of 100 to 1000 nM. Take `CC1(C#N)CN(c2cc(Oc3ccc(-n4ncn(Cc5c(F)cccc5F)c4=O)cc3)c(F)cn2)C1` [Example 323, 1-(4-(4-(4-(2,6-difluorobenzyl)-5-oxo-4,5-dihydro-1H-1,2,4-triazol-1-yl)phenoxy)-5-fluoropyridin-2-yl)-3-methylazetidine-3-carbonitrile]: the IC50 is 100 to 1000 nM. To `CCOC1CN(c2cc(Oc3ccc(-n4ncn(Cc5c(F)cccc5F)c4=O)cc3)c(F)cn2)C1` [Example 324, 4-(2,6-difluorobenzyl)-2-(4-((2-(3-ethoxyazetidin-1-yl)-5-fluoropyridin-4-yl)oxy)phenyl)-2,4-dihydro-3H-1,2,4-triazol-3-one] belongs less than 100 nM; to `N#CC12CC(Nc3cc(Oc4ccc(-n5ncn(Cc6c(F)cccc6F)c5=O)cc4)c(Cl)cn3)(C1)C2` [Example 325, 3-((5-chloro-4-(4-(4-(2,6-difluorobenzyl)-5-oxo-4,5-dihydro-1H-1,2,4-triazol-1-yl)phenoxy)pyridin-2-yl)amino)bicyclo[1.1.1]pentane-1-carbonitrile], less than 100 nM.

With `CCOC1CN(c2cc(Oc3ccc(-n4ncn(Cc5c(F)cccc5F)c4=O)cc3)c(Cl)cn2)C1` [Example 326, 2-(4-((5-chloro-2-(3-ethoxyazetidin-1-yl)pyridin-4-yl)oxy)phenyl)-4-(2,6-difluorobenzyl)-2,4-dihydro-3H-1,2,4-triazol-3-one], the IC50 was less than 100 nM.

As to `CC(C)(C)OC(=O)NC1CN(c2cc(Oc3ccc(-n4ncn(Cc5c(F)cccc5F)c4=O)cc3)ccn2)C1` [Example 327, tert-butyl (1-(4-(4-(4-(2,6-difluorobenzyl)-5-oxo-4,5-dihydro-1H-1,2,4-triazol-1-yl)phenoxy)pyridin-2-yl)azetidin-3-yl)carbamate], the IC50 was less than 100 nM. Next, `O=c1n(Cc2c(F)cccc2F)cnn1-c1ccc(Oc2ccnc(NC3CC(F)(F)C3)c2)cc1` [Example 328, 4-(2,6-difluorobenzyl)-2-(4-((2-((3,3-difluorocyclobutyl)amino)pyridin-4-yl)oxy)phenyl)-2,4-dihydro-3H-1,2,4-triazol-3-one]: 100 to 1000 nM; `CC1(O)CN(c2cc(Oc3ccc(-n4ncn(Cc5c(F)cccc5F)c4=O)cc3)ccn2)C1` [Example 329, 4-(2,6-difluorobenzyl)-2-(4-((2-(3-hydroxy-3-methylazetidin-1-yl)pyridin-4-yl)oxy)phenyl)-2,4-dihydro-3H-1,2,4-triazol-3-one]: less than 100 nM; `O=c1n(Cc2c(F)cccc2F)cnn1-c1ccc(Oc2ccnc(N3CCC4(CCOC4)C3)c2)cc1` (stereo not drawn) [Example 330, 2-(4-((2-(2-oxa-7-azaspiro[4.4]nonan-7-yl)pyridin-4-yl)oxy)phenyl)-4-(2,6-difluorobenzyl)-2,4-dihydro-3H-1,2,4-triazol-3-one]: less than 100 nM.

For the molecule `O=c1n(Cc2c(F)cccc2F)cnn1-c1ccc(Oc2ccnc(N3CC4(CCCO4)C3)c2)cc1` [Example 331, 2-(4-((2-(5-oxa-2-azaspiro[3.4]octan-2-yl)pyridin-4-yl)oxy)phenyl)-4-(2,6-difluorobenzyl)-2,4-dihydro-3H-1,2,4-triazol-3-one], the IC50 is less than 100 nM. Turning to `NC1CC2(C1)CC(Nc1cc(Oc3ccc(-n4ncn(Cc5c(F)cccc5F)c4=O)cc3)ccn1)C2` (stereo not drawn) [Example 332, 2-(4-((2-((6-aminospiro[3.3]heptan-2-yl)amino)pyridin-4-yl)oxy)phenyl)-4-(2,6-difluorobenzyl)-2,4-dihydro-3H-1,2,4-triazol-3-one], the IC50 is 100 to 1000 nM. In the case of `O=c1n(Cc2c(F)cccc2F)cnn1-c1ccc(Oc2ccnc(N3CCC4(COC4)C3)c2)cc1` [Example 333, 2-(4-((2-(2-oxa-6-azaspiro[3.4]octan-6-yl)pyridin-4-yl)oxy)phenyl)-4-(2,6-difluorobenzyl)-2,4-dihydro-3H-1,2,4-triazol-3-one], the IC50 was less than 100 nM. Turning to `O=c1n(Cc2c(F)cccc2F)cnn1-c1ccc(Oc2ccnc(N3CC4(CCCCO4)C3)c2)cc1` [Example 334, 2-(4-((2-(5-oxa-2-azaspiro[3.5]nonan-2-yl)pyridin-4-yl)oxy)phenyl)-4-(2,6-difluorobenzyl)-2,4-dihydro-3H-1,2,4-triazol-3-one], the IC50 was less than 100 nM. As to `O=c1n(Cc2c(F)cccc2F)cnn1-c1ccc(Oc2ccnc(N3CC4(CCCOC4)C3)c2)cc1` [Example 335, 2-(4-((2-(6-oxa-2-azaspiro[3.5]nonan-2-yl)pyridin-4-yl)oxy)phenyl)-4-(2,6-difluorobenzyl)-2,4-dihydro-3H-1,2,4-triazol-3-one], the IC50 is less than 100 nM.

As for `CCOC1CN(c2cc(Oc3ccc(-n4ncn(Cc5c(F)cccc5F)c4=O)cc3)ccn2)C1` [Example 336, 4-(2,6-difluorobenzyl)-2-(4-((2-(3-ethoxyazetidin-1-yl)pyridin-4-yl)oxy)phenyl)-2,4-dihydro-3H-1,2,4-triazol-3-one], the IC50 was less than 100 nM. In the case of `CC1CCN(c2cc(Oc3ccc(-n4ncn(Cc5c(F)cccc5F)c4=O)cc3)ccn2)C1` (stereo not drawn) [Example 337, 4-(2,6-difluorobenzyl)-2-(4-((2-(3-methylpyrrolidin-1-yl)pyridin-4-yl)oxy)phenyl)-2,4-dihydro-3H-1,2,4-triazol-3-one], the IC50 was less than 100 nM.

Turning to `N#CC1CN(c2cc(Oc3ccc(-n4ncn(Cc5c(F)cccc5F)c4=O)cc3)ccn2)C1` [Example 338, 1-(4-(4-(4-(2,6-difluorobenzyl)-5-oxo-4,5-dihydro-1H-1,2,4-triazol-1-yl)phenoxy)pyridin-2-yl)azetidine-3-carbonitrile], the IC50 lay within 100 to 1000 nM. To `O=c1n(Cc2c(F)cccc2F)cnn1-c1ccc(Oc2ccnc(N3CC4(CCOCC4)C3)c2)cc1` [Example 339, 2-(4-((2-(7-oxa-2-azaspiro[3.5]nonan-2-yl)pyridin-4-yl)oxy)phenyl)-4-(2,6-difluorobenzyl)-2,4-dihydro-3H-1,2,4-triazol-3-one] belongs less than 100 nM; to `O=c1n(Cc2c(F)cccc2F)cnn1-c1ccc(Oc2ccnc(N3CCC4(CCOCC4)C3)c2)cc1` [Example 340, 2-(4-((2-(8-oxa-2-azaspiro[4.5]decan-2-yl)pyridin-4-yl)oxy)phenyl)-4-(2,6-difluorobenzyl)-2,4-dihydro-3H-1,2,4-triazol-3-one], less than 100 nM; to `O=c1n(Cc2c(F)cccc2F)cnn1-c1ccc(Oc2ccnc(NCC3COC3)c2)cc1` [Example 341, 4-(2,6-difluorobenzyl)-2-(4-((2-((oxetan-3-ylmethyl)amino)pyridin-4-yl)oxy)phenyl)-2,4-dihydro-3H-1,2,4-triazol-3-one], 1000 to 10000 nM. Turning to `O=c1n(Cc2c(F)cccc2F)cnn1-c1ccc(Oc2ccnc(NCC3CCC3)c2)cc1` [Example 342, 2-(4-((2-((cyclobutylmethyl)amino)pyridin-4-yl)oxy)phenyl)-4-(2,6-difluorobenzyl)-2,4-dihydro-3H-1,2,4-triazol-3-one], the IC50 is 100 to 1000 nM. Turning to `O=c1n(Cc2c(F)cccc2F)cnn1-c1ccc(Oc2ccnc(NC3COC3)c2)cc1` [Example 343, 4-(2,6-difluorobenzyl)-2-(4-((2-(oxetan-3-ylamino)pyridin-4-yl)oxy)phenyl)-2,4-dihydro-3H-1,2,4-triazol-3-one], the IC50 is 1000 to 10000 nM. Regarding `O=c1n(Cc2c(F)cccc2F)cnn1-c1ccc(Oc2ccnc(NC3CCC3)c2)cc1` [Example 344, 2-(4-((2-(cyclobutylamino)pyridin-4-yl)oxy)phenyl)-4-(2,6-difluorobenzyl)-2,4-dihydro-3H-1,2,4-triazol-3-one], the IC50 was 100 to 1000 nM.

Consider `CC(C)Nc1cc(Oc2ccc(-n3ncn(Cc4c(F)cccc4F)c3=O)cc2)ccn1` [Example 345, 4-(2,6-difluorobenzyl)-2-(4-((2-(isopropylamino)pyridin-4-yl)oxy)phenyl)-2,4-dihydro-3H-1,2,4-triazol-3-one], for which the IC50 lay in the range of 100 to 1000 nM. Take `CCNc1cc(Oc2ccc(-n3ncn(Cc4c(F)cccc4F)c3=O)cc2)ccn1` [Example 346, 4-(2,6-difluorobenzyl)-2-(4-((2-(ethylamino)pyridin-4-yl)oxy)phenyl)-2,4-dihydro-3H-1,2,4-triazol-3-one]: the IC50 lay in the range of 100 to 1000 nM. To `O=c1n(Cc2c(F)cccc2F)cnn1-c1ccc(Oc2ccnc(OCC3CC3)c2)cc1` [Example 347, 2-(4-((2-(cyclopropylmethoxy)pyridin-4-yl)oxy)phenyl)-4-(2,6-difluorobenzyl)-2,4-dihydro-3H-1,2,4-triazol-3-one] belongs less than 100 nM; to `C[C@@H](Nc1cc(Oc2ccc(-n3ncn(Cc4c(F)cccc4F)c3=O)cc2)ccn1)C1CCC1` [Example 348, (R)-2-(4-((2-((1-cyclobutylethyl)amino)pyridin-4-yl)oxy)phenyl)-4-(2,6-difluorobenzyl)-2,4-dihydro-3H-1,2,4-triazol-3-one], 100 to 1000 nM; to `C[C@H](Nc1cc(Oc2ccc(-n3ncn(Cc4c(F)cccc4F)c3=O)cc2)ccn1)C1CCC1` [Example 349, (S)-2-(4-((2-((1-cyclobutylethyl)amino)pyridin-4-yl)oxy)phenyl)-4-(2,6-difluorobenzyl)-2,4-dihydro-3H-1,2,4-triazol-3-one], 100 to 1000 nM. For the molecule `O=c1n(Cc2c(F)cccc2F)cnn1-c1ccc(S(=O)(=O)c2ccnc(N3CCC3)c2)cc1` [Example 350, 2-(4-((2-(azetidin-1-yl)pyridin-4-yl)sulfonyl)phenyl)-4-(2,6-difluorobenzyl)-2,4-dihydro-3H-1,2,4-triazol-3-one], the IC50 was less than 100 nM. In the case of `N#CC1CC(Nc2cc(Oc3ccc(-n4ncn(Cc5c(F)cccc5F)c4=O)cc3)ccn2)C1` (stereo not drawn) [Example 351, 3-((4-(4-(4-(2,6-difluorobenzyl)-5-oxo-4,5-dihydro-1H-1,2,4-triazol-1-yl)phenoxy)pyridin-2-yl)amino)cyclobutane-1-carbonitrile], the IC50 is 100 to 1000 nM.
